In brackets after ≈: the same amount, converted by molar mass. Where no end group is shown, it is not given here.
Columns and labels:
P. aeruginosa ATCC9027 = type: cell-based, Pseudomonas aeruginosa; conditions: MHB, 37 °C overnight, A595; mode of three independent experiments
Experimental: (§1) The activity of peptides was determined against the Gram-positive Staphylococcus aureus (ATCC 25923), and the Gram-negative Escherichia coli (ATCC 25922) and Pseudomonas aeruginosa (ATCC 9027) bacteria. Selected peptides were also tested against two clinical isolates of methicillin-resistant Staphylococcus aureus (MRSA), M173525 and M180920, kindly provided by Dr P. B. Ward (Microbiology Department, Austin and Repatriation Medical Centre, Heidelberg West, Victoria, Australia). The Minimum inhibitory concentration (MIC) of peptides was determined by the microtitre broth dilution method, as described in Phillips et al.. Briefly, bacteria were grown in Mueller-Hinton Broth (MHB) at 37 °C overnight with shaking (200 rpm). The cultures were adjusted to 0.5 McFarland turbidity standard (approximately 1 × 10^8 colony forming units (CFU)/mL), then diluted 1:100 in MHB (1 × 10^6 CFU/mL). A total of 75 μL of these suspensions were mixed with 25 μL of peptide solutions (final concentrations 250 to 0.5 μg/mL) and the microtitre plates incubated overnight at 37 °C. Positive growth controls (inoculum and MHB, with no peptide) and sterility controls (0.01% glacial acetic) were also included. Post-incubations, the absorbance of cultures at 595 nm was measured using a microplate reader (POLARstar Omega, Germany). […] To evaluate salt sensitivity of peptides up to physiological levels (150 mM NaCl), overnight cultures of S. aureus and E. coli adjusted to 0.5 McFarland turbidity standard were diluted 1:100 in MHB containing 0, 50, 100 or 150 mM NaCl, and the MICs of peptides determined as above. All tests were conducted in triplicate. The results are shown as the mode of values obtained.

E. coli and S. aureus = assay: Salt tolerance (MICs under 0-150 mM NaCl, summary); type: cell-based, Escherichia coli; Staphylococcus aureus; design: key: Up to 50 mM: no effects on antibacterial activity up to 50 mM NaCl but increase in the MICs for E. coli and S. aureus at 100 mM NaCl; Intolerant: not resistant to salt effects even at 50 mM NaCl; Up to 150 mM: no effects on antibacterial activity up to 150 mM NaCl; conditions: MICs for E. coli and S. aureus in MHB with 0, 50, 100 or 150 mM NaCl
Experimental: as §1

NIH-3T3 cells = assay: Cytotoxicity, MTT assay; type: cell-based, mouse; conditions: 24 h; for IC50 NIH-3T3: peptide up to 250 µg/mL, concentration causing 50% cell growth inhibition, mean of triplicate assays
Experimental: Cytotoxicity to human cervical carcinoma HeLa cells and mouse fibroblastic NIH-3T3 cells was determined using the MTT assay as per Scudiero et al. with minor modifications. The cells were maintained in Dulbecco’s Modified Eagle Medium (DMEM) with 10% foetal bovine serum (FBS) and 1% penicillin G in a humidified incubator (Heraeus Hera Cell incubator) at 37 °C with 5% CO2. They were seeded in 96-well microtiter plates at 1 × 10^4 cells/well and allowed to adhere for 24 h in the incubator. The medium was removed, and adherent cells were washed with PBS. Fresh media containing serially diluted peptides in PBS (final concentrations 4 to 250 µg/mL) were added and the cells incubated for 24 h. Cells without peptides were used as negative controls. Following incubations, the medium was removed, and adherent cells were washed with PBS. 150 µL of MTT (diluted to 0.33 mg/mL in DMEM) and the plates incubated for 3 h. The precipitated formazan was dissolved in 100 µL of DMSO and its absorbance measured at 570 nm. Cell viability was determined as: (OD570 nm peptide treated cells/(OD570 nm untreated cells) × 100. Positive cytotoxicity was defined as peptide concentration that causes 50% growth inhibition in a cell line (IC50). All tests were carried out in triplicate.

[1] = tested on: pBlueScript SK+ plasmid DNA; assay: In vitro DNA-binding assay (gel retardation); conditions: 100 ng pBlueScript SK+, peptide 8-500 µg/mL, 1 h room temperature, 1% agarose
Experimental: The ability of peptides to bind to purified DNA (indicative of in vivo DNA binding potential) was tested by the modified gel retardation assay developed by Alfred et al.. The DNA of pBlueScript SK+ (100 ng) was incubated with peptides (to final concentrations of 8, 16, 32, 64, 125, 250 or 500 µg/mL) in 15 µL volumes made with sterile MilliQ water, the held at room temperature for 1h. Loading dye was added to each sample and the samples electrophoresed on 1% agarose gels. The gels were then immersed in ethidium bromide ([…]) then visualized and imaged

| Molecule | MIC P. aeruginosa ATCC9027 (P. aeruginosa ATCC9027) | Salt Tolerance (E. coli and S. aureus) | IC50 NIH-3T3 (NIH-3T3 cells) | Binding to DNA in vitro (concentration inhibiting plasmid migration) [1] | Cytotoxicity to NIH-3T3 mouse fibroblasts (in words) (NIH-3T3 cells; up to 250 µg/mL) |
| --- | --- | --- | --- | --- | --- |
| RKRWWRWWKWWKR-NH2 [Peptide P1] | 16 µg/mL | Up to 150 mM | 250 µg/mL |  |  |
| WRWWKWW-NH2 [Peptide W7] | 32 µg/mL | Up to 150 mM | 250 µg/mL | ≥ 16 µg/mL |  |
| WWRWWKWW-NH2 [WW] | 32 µg/mL |  | >250 µg/mL |  | no cytotoxicity |
| CC(C)[C@H](NC(=O)[C@@H]1CCCN1C(=O)[C@@H](N)Cc1ccccc1)C(=O)N[C@H](C(=O)N[C@@H](Cc1c[nH]c2ccccc12)C(=O)N[C@@H](CCCNC(=N)N)C(=O)N[C@@H](Cc1c[nH]c2ccccc12)C(=O)N[C@@H](Cc1c[nH]c2ccccc12)C(=O)N[C@@H](CCCCN)C(=O)N[C@@H](Cc1c[nH]c2ccccc12)C(=O)N[C@@H](Cc1c[nH]c2ccccc12)C(=O)N[C@@H](CCCCN)C(=O)NCC(N)=O)[C@@H](C)O [PuroA] | 64 µg/mL (≈ 34.4 µM) |  | 250 µg/mL (≈ 134 µM) |  |  |

Reference: paper PMC7696940, “Effects of Rationally Designed Physico-Chemical Variants of the Peptide PuroA on Biocidal Activity towards Bacterial and Mammalian Cells” (International Journal of Molecular Sciences, 2020)
